In patent US8785486B2, “Imidazo[1,2-A]pyridine derivatives and their use as positive allosteric modulators of mGluR2 receptors” (Janssen Pharmaceuticals, Inc., priority 2007, dated 2014):

Biological target: T1, human mGluR2 receptor (Homo sapiens, UniProt Q14416)
T1 construct: expressed in transfected cells; host or cells: CHO cells
Test: [35S]GTPγS binding assay (PAM assay) using membranes from cells transfected with the human mGluR2 receptor
Assay type: biochemical
Details: membranes of CHO cells with human mGluR2; glutamate at predetermined EC25 concentration; averages of duplicate values of 11-concentration response curves
Method: The [^35S]GTPγS binding assay is a functional membrane-based assay used to study G-protein coupled receptor (GPCR) function whereby incorporation of a non-hydrolysable form of GTP, [^35S]GTPγS (guanosine 5′-triphosphate, labelled with […] ^35S), is measured.
CHO-cells were cultured to pre-confluence and stimulated with 5 mM butyrate for 24 hours, prior to washing in PBS, and then collection by scraping in homogenisation buffer (50 mM Tris-HCl buffer, pH 7.4, 4° C.). Cell lysates were homogenized briefly (15 s) using an ultra-turrax homogenizer. The homogenate was centrifuged at 23 500×g for 10 minutes and the supernatant discarded. The pellet was resuspended in 5 mM Tris-HCl, pH 7.4 and centrifuged again (30 000×g, 20 min, 4° C.). The final pellet was resuspended in 50 mM HEPES, pH 7.4 and stored at −80° C. in appropriate aliquots before use. Protein concentration was determined by the Bradford method (Bio-Rad, USA) with bovine serum albumin as standard.
Measurement of mGluR2 positive allosteric modulatory activity of test compounds in membranes containing human mGluR2 was performed using frozen membranes that were thawed and briefly homogenised prior to pre-incubation in 96-well microplates (15 μg/assay well, 30 minutes, 30° C.) in assay buffer (50 mM HEPES pH 7.4, 100 mM NaCl, 3 mM MgCl2, 50 μM GDP, 10 μg/ml saponin,) with increasing concentrations of positive allosteric modulator (from 0.3 nM to 50 μM) and either a minimal pre-determined concentration of glutamate (PAM assay), or no added glutamate. […] After addition of [^35S]GTPγS (0.1 nM, f.c.) to achieve a total reaction volume of 200 μl, microplates were shaken briefly and further incubated to allow [^35S]GTPγS incorporation on activation (30 minutes, 30° C.). The reaction was stopped by rapid vacuum filtration over glass-fibre filter plates (Unifilter 96-well GF/B filter plates, Perkin-Elmer, Downers Grove, USA) microplate using a 96-well plate cell harvester (Filtermate, Perkin-Elmer, USA), and then by washing three times with 300 μl of ice-cold wash buffer (Na2PO4.2H2O 10 mM, NaH2PO4.H2O 10 mM, pH=7.4). Filters were then air-dried, and 40 μl of liquid scintillation cocktail (Microscint-O) was added to each well, and membrane-bound [^35S]GTPγS was measured in a 96-well scintillation plate reader (Top-Count, Perkin-Elmer, USA). Non-specific [^35S]GTPγS binding is determined in the presence of cold 10 μM GTP. Each curve was performed at least once using duplicate sample per data point and at 11 concentrations.
The concentration-response curves of representative compounds of the present invention in the presence of added EC25 of mGluR2 agonist glutamate to determine positive allosteric modulation (PAM), were generated using the Prism GraphPad software (Graph Pad Inc, San Diego, USA). The curves were fitted to a four-parameter logistic equation (Y=Bottom+(Top-Bottom)/(1+10^((Log EC50−X)*Hill Slope) allowing determination of EC50 values. The EC50 is the concentration of a compound that causes a half-maximal potentiation of the glutamate response. This is calculated by subtracting the maximal responses of glutamate in presence of a fully saturating concentration of a positive allosteric modulator from the response of glutamate in absence of a positive allosteric modulator. The concentration producing the half-maximal effect is then calculated as EC50

T1 sequence (Q14416 19-872): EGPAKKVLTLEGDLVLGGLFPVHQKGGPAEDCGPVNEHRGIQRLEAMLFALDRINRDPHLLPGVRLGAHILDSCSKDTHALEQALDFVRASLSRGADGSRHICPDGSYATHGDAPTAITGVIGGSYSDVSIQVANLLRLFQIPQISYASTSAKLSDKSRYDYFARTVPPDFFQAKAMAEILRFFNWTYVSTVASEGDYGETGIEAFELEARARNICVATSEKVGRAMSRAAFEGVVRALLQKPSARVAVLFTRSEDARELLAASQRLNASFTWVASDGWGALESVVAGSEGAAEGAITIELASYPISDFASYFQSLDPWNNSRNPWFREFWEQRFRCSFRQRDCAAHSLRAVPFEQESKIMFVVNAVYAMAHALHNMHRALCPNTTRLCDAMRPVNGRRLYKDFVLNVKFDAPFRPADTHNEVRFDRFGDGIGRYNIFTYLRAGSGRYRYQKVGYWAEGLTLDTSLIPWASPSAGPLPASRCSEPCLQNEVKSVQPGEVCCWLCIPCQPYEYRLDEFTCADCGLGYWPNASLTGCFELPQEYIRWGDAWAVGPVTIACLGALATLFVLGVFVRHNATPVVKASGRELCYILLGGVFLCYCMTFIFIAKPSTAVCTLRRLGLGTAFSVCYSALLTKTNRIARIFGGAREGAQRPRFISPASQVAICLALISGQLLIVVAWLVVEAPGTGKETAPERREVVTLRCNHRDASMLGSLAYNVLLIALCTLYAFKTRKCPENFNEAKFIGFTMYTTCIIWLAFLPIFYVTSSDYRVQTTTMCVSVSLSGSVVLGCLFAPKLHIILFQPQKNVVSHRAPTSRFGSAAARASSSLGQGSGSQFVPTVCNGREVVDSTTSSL

Going from N#Cc1c(-c2ccc(NC3CC3)c(Cl)c2)ccn2c(CC(F)(F)F)cnc12 [Example 105, 7-(3-Chloro-4-cyclopropylamino-phenyl)-3-(2,2,2-trifluoro-ethyl)-imidazo[1,2-a]pyridine-8-carbonitrile] to N#Cc1c(-c2ccc(N3CCOCC3)c(Cl)c2)ccn2c(CC(F)(F)F)cnc12 [Example 110], the “GTPγS - hR2 PAM pEC50” value falls from 6.85 to 5.67.

Going from CC(C)(C)c1ccc(-c2ccn3c(CC(F)(F)F)cnc3c2C#N)cc1 [Example 88] to N#Cc1c(-c2ccc(N3CCCCC3)cc2)ccn2c(CC(F)(F)F)cnc12 [Example 107], the “GTPγS - hR2 PAM pEC50” value rises from 6.35 to 6.63.

Going from N#Cc1c(-c2ccc(OCc3ccccc3)cc2)ccn2c(CC(F)(F)F)cnc12 [Example 120] to N#Cc1c(N2CCN(c3ncccn3)CC2)ccn2c(CCC3CC3)cnc12 [Example 55], the “GTPγS - hR2 PAM pEC50” value falls from 6.80 to 5.96.

Same assay, conditions: membranes of CHO cells with human mGluR2; glutamate at predetermined EC25 concentration; averages of duplicate values of 11-concentration response curves; read-out: GTPγS - hR2 PAM pEC50 (converted)

Going from N#Cc1c(N2CCC(c3ccccc3)CC2)ccn2c(CC(F)(F)F)cnc12 [Example 3, 7-(4-Phenyl-piperidin-1-yl)-3-(2,2,2-trifluoro-ethyl)-imidazo[1,2-a]pyridine-8-carbonitrile] to N#Cc1c(N2CCC(c3ccccc3)CC2)ccn2c(C(F)(F)F)cnc12 [Example 29, 7-(4-Phenyl-piperidin-1-yl)-3-trifluoromethyl-imidazo[1,2-a]pyridine-8-carbonitrile], the EC50 rises from 123 nM to 776 nM (6.3-fold).

Going from N#Cc1c(N2CCC(c3ccccc3)CC2)ccn2c(C3CC3)cnc12 [Example 49] to N#Cc1c(N2CCC(c3ccccc3)CC2)ccn2c(-c3ccccc3)cnc12 [Example 10], the EC50 falls from 676 nM to 398 nM (1.7-fold).

Going from N#Cc1c(-c2ccc(O[C@H]3CC[C@H](O)CC3)c(Cl)c2)ccn2c(CC(F)(F)F)cnc12 [Example 102] to N#Cc1c(-c2ccc(OC3CCCC3)c(Cl)c2)ccn2c(CC(F)(F)F)cnc12 [Example 84], the EC50 falls from 851 nM to 302 nM (2.8-fold).

N#Cc1c(-c2ccc(C(F)(F)c3ccccc3)cc2)ccn2c(CC(F)(F)F)cnc12 [Example 72] and N#Cc1c(-c2ccc(COc3ccccc3F)cc2)ccn2c(CC(F)(F)F)cnc12 [Example 113] are within 1.5-fold of each other in EC50: 214 nM for the first, 155 nM for the second.

Going from Cc1cccnc1N1CCN(c2ccn3c(CC(F)(F)F)cnc3c2C#N)CC1 [Example 53] to Cc1ccnc(N2CCN(c3ccn4c(CC(F)(F)F)cnc4c3C#N)CC2)n1 [Example 60], the EC50 falls from 1350 nM to 525 nM (2.6-fold).

Compared with N#Cc1c(N2CCN(c3ccc(F)cc3F)CC2)ccn2c(CC(F)(F)F)cnc12 [Example 52], N#Cc1c(CN2CCN(c3ccc(F)cc3F)CC2)ccn2c(CC(F)(F)F)cnc12 [Example 39] is 5-fold higher in EC50: 275 nM for the first, 1380 nM for the second.

N#Cc1c(N2CCC(c3ccccc3CCF)CC2)ccn2c(CC(F)(F)F)cnc12 [Example 118] and N#Cc1c(N2CCC(c3cccc(F)c3OCCF)CC2)ccn2c(CC(F)(F)F)cnc12 [Example 119] are within 1.5-fold of each other in EC50: 63.1 nM for the first, 57.5 nM for the second.

Compared with C[C@]1(O)CC[C@H](Oc2ccc(-c3ccn4c(CC(F)(F)F)cnc4c3C#N)cc2Cl)CC1 [Example 97], C[C@]1(O)CC[C@@H](Oc2ccc(-c3ccn4c(CC(F)(F)F)cnc4c3C#N)cc2Cl)CC1 [Example 104] is 1.7-fold higher in EC50: 603 nM for the first, 1050 nM for the second.

First: N#Cc1c(-c2ccc(NC3CC3)c(F)c2)ccn2c(CC(F)(F)F)cnc12 [Example 106]
Second: N#Cc1c(-c2ccc(N[C@H]3CC[C@@H](O)CC3)c(Cl)c2)ccn2c(CC(F)(F)F)cnc12 [Example 95, (cis)-7-[3-Chloro-4-(4-hydroxy-cyclohexylamino)-phenyl]-3-(2,2,2-trifluoro-ethyl)-imidazo[1,2-a]pyridine-8-carbonitrile]
The EC50 of the first is 34-fold higher: 6310 nM for the first, 186 nM for the second.

Going from N#Cc1c(-c2ccc(N3CCC(O)CC3)cc2)ccn2c(CC(F)(F)F)cnc12 [Example 111] to FC(F)(F)Cc1cnc2c(Cl)c(-c3ccc(N4CCCCC4)cc3)ccn12 [Example 109], the EC50 falls from 1050 nM to 275 nM (3.8-fold).

Going from COc1c(F)cccc1C1CCN(c2ccn3c(CC(F)(F)F)cnc3c2C#N)CC1 [Example 61, 7-[4-(3-Fluoro-2-methoxy-phenyl)-piperidin-1-yl]-3-(2,2,2-trifluoro-ethyl)-imidazo[1,2-a]pyridine-8-carbonitrile] to COc1cccc(F)c1C1CCN(c2ccn3c(CC(F)(F)F)cnc3c2C#N)CC1 [Example 69], the EC50 falls from 37.2 nM to 9.77 nM (3.8-fold).

Compared with Cc1cc(Oc2ccc(-c3ccn4c(CC(F)(F)F)cnc4c3C#N)c(F)c2)ccn1 [Example 4, 7-[2-Fluoro-4-(2-methyl-pyridin-4-yloxy)-phenyl]-3-(2,2,2-trifluoro-ethyl)-imidazo[1,2-a]pyridine-8-carbonitrile], Cc1cc(Oc2ccc(-c3ccn4c(CC(F)(F)F)cnc4c3C#N)cc2F)ccn1 [Example 17] is 1.6-fold higher in EC50: 692 nM for the first, 1120 nM for the second.

N#Cc1c(-c2ccc(N3CCCC3)c(Cl)c2)ccn2c(CC(F)(F)F)cnc12 [Example 108] and CC(C)Oc1ccc(-c2ccn3c(CC(F)(F)F)cnc3c2C#N)cc1Cl [Example 87] are within 1.5-fold of each other in EC50: 457 nM for the first, 309 nM for the second.

N#Cc1c(N2CCC([C@H]3CC[C@H](O)CC3)CC2)ccn2c(CC(F)(F)F)cnc12 [Example 122] and N#Cc1c(N2CCC(c3ccc(N4CCOCC4)cc3)CC2)ccn2c(CC(F)(F)F)cnc12 [Example 57] are within 1.5-fold of each other in EC50: 550 nM for the first, 479 nM for the second.

Going from N#Cc1c(N2CCC(c3ccccc3)CC2)ccn2c(Cc3ccccc3)cnc12 [Example 7] to N#Cc1c(CN2CCC(c3ccccc3)CC2)ccn2c(-c3ccccc3)cnc12 [Example 1, 3-Phenyl-7-(4-phenyl-piperidin-1-ylmethyl)-imidazo[1,2-a]pyridine-8-carbonitrile], the EC50 rises from 178 nM to 513 nM (2.9-fold).

FC(F)(F)Cc1cnc2c(Cl)c(N3CCC4(CC3)CN(c3ccccc3)C4)ccn12 [Example 125] and N#Cc1c(N2CCC(c3ccccc3)(N3CCOCC3)CC2)ccn2c(CC(F)(F)F)cnc12 [Example 121] are within 1.5-fold of each other in EC50: 1780 nM for the first, 2090 nM for the second.

First: CC(C)(O)COc1ccc(-c2ccn3c(CC(F)(F)F)cnc3c2C#N)cc1Cl [Example 86]
Second: N#Cc1c(-c2ccc(OC3CCOCC3)c(Cl)c2)ccn2c(CC(F)(F)F)cnc12 [Example 90]
The EC50 of the first is 4.7-fold higher: 3160 nM for the first, 676 nM for the second.

Compared with Fc1ccc(Oc2ccc(-c3ccn4c(CC(F)(F)F)cnc4c3Cl)cc2)cc1 [Example 70], N#Cc1c(-c2ccc(Oc3ccc(C(=O)O)cc3)cc2)ccn2c(CC(F)(F)F)cnc12 [Example 83] is 2.5-fold higher in EC50: 269 nM for the first, 676 nM for the second.

Compared with Cc1cc(Oc2ccc(-c3ccn4c(CC(F)(F)F)cnc4c3C#N)cc2)ccn1 [Example 13], CCc1cnc2c(C#N)c(-c3ccc(Oc4ccnc(C)c4)cc3)ccn12 [Example 18] is 2.2-fold higher in EC50: 589 nM for the first, 1320 nM for the second.

Going from N#Cc1c(N2CCc3c([nH]c4ccccc34)C2)ccn2c(CC(F)(F)F)cnc12 [Example 117] to N#Cc1c(CN2CCC(c3ccccc3)CC2)ccn2c(CC(F)(F)F)cnc12 [Example 27], the EC50 falls from 692 nM to 295 nM (2.3-fold).

FC(F)(F)Cc1cnc2c(Cl)c(CN3CCC(c4ccccc4)CC3)ccn12 [Example 42] and FC(F)(F)Cc1cnc2c(Cl)c(CN3CCC4(CC3)COc3ccccc3O4)ccn12 [Example 124] are within 1.5-fold of each other in EC50: 562 nM for the first, 794 nM for the second.

First: CC(O)c1ccc(C2CCN(c3ccn4c(CC(F)(F)F)cnc4c3C#N)CC2)cc1 (stereo not shown) [Example 59]
Second: Cc1cnc(N2CCN(c3ccn4c(CC(F)(F)F)cnc4c3C#N)CC2)nc1 [Example 56]
The EC50 of the first is 1.7-fold lower: 372 nM for the first, 646 nM for the second.

First: CC1(O)CCC(Nc2ccc(-c3ccn4c(CC(F)(F)F)cnc4c3Cl)cc2Cl)CC1 (stereo not shown) [Example 98, 4-{2-Chloro-4-[8-chloro-3-(2,2,2-trifluoro-ethyl)-imidazo[1,2-a]pyridin-7-yl]-phenylamino}-1-methyl-cyclohexanol]
Second: N#Cc1c(-c2ccc(Oc3ccccc3)c(F)c2)ccn2c(CC(F)(F)F)cnc12 [Example 76]
The EC50 of the first is 1.8-fold higher: 490 nM for the first, 269 nM for the second.
